Test results as given in patent publication US11738033B2, “Adjunctive therapy with 25-hydroxyvitamin D and articles therefor” (priority 2014, dated 2023).
Like-named read-outs stand apart in the source and are kept apart here.

What was measured:
[1] = patients with bone metastases; cited from earlier work
[2] = Efficacy study in osteoporosis patients treated with an antiresorptive agent (denosumab); format: in vivo, human; settings: for incidence of hypocalcemia and severity of secondary hyperparathyroidism: once stable dosing has been achieved, denosumab-treated
[3] = Efficacy study in prostate cancer patients treated with denosumab; format: in vivo, human; settings: for incidence of hypocalcemia and severity of SHPT and hypercalcemia: once stable dosing has been achieved, denosumab-treated
[4] = Efficacy study in breast cancer patients treated with denosumab; format: in vivo, human; settings: for incidence of hypocalcemia and severity of secondary hyperparathyroidism: once stable dosing has been achieved, denosumab-treated
[5] = format: in vivo, human; settings: dose escalation phase, 30 to 300 mcg daily
Procedure: At the start of the study, all patients have plasma PTH greater than […] as evidence of SHPT, serum calcium less than 9.8 mg/dL, spot urine Ca:Cr ratio≤0.25 (≤250 mg/g creatinine) and an estimated glomerular filtration rate greater than 15 mL/min/1.73 m^2. […] Denosumab or zoledronic acid are administered according to the typical standard of care for each patient's condition.
The 52-week study consists of a 40 week dose escalation phase followed by a 12-week maintenance phase. At the end of the maintenance phase, there is a two-week follow up phase. At the start of the study, all patients receive an initial daily dose of 30 mcg 25-hydroxyvitamin D3, which is increased at four-week intervals over the course of the dose escalation phase up to a maximum daily dose of 300 mcg. The daily dose achieved by the end of the dose escalation study is the daily dose administered during the maintenance phase.
Blood samples are collected at 2-week intervals for monitoring serum levels of calcium and phosphorus. […] Serum vitamin D metabolites and markers of bone metabolism, immune function, and tumor burden are measured at the beginning of the dose escalation phase and at the beginning and end of the maintenance phase. […] The genotype of vitamin D binding protein is determined for each subject at the beginning of the dose escalation phase.

[6] = Efficacy study in patients with metastatic bone disease receiving an antiresorptive agent; format: in vivo, human; settings: with denosumab or zoledronic acid
Procedure: Denosumab or zoledronic acid are administered according to the typical standard of care for each patient's condition. […] Samples are collected at monthly intervals for monitoring serum and urine levels of calcium, plasma levels of PTH and serum total 25-hydroxyvitamin D. Serum markers of tumor burden and bone metabolism, as well as cancer progression are assessed at 3-month intervals.

[7] = Efficacy study in patients with metastatic bone disease, prevention of SREs; format: in vivo, human; settings: with denosumab or zoledronic acid
Procedure: Denosumab or zoledronic acid are administered according to the typical standard of care for each patient's condition. Patients are monitored for SREs, including by appropriate non-invasive imaging techniques, and serum markers of tumor burden and bone metabolism at 3-month intervals, and at monthly intervals for serum and urine calcium levels and plasma PTH. Cancer progression is monitored at quarterly intervals.

[8] = after 24 months, with denosumab, vs denosumab and Vitamin D3
[9] = 6-month study, compared to placebo
[10] = compared to antiresorptive plus placebo
[11] = 24-month studies, compared to placebo

O=P(O)(O)C(O)(Cn1ccnc1)P(=O)(O)O [zoledronic acid]
patients who developed hypocalcemia [1]: 39%

C=C1CC[C@H](O)C/C1=C/C=C1\CCC[C@]2(C)[C@@H]([C@H](C)CCCC(C)(C)O)CC[C@@H]12 [25-hydroxyvitamin D3]
increases in bone mineral density [2, 8]: larger increases
serum PTH levels [2, 8]: lower
incidence of hypocalcemia and severity of secondary hyperparathyroidism [2]: markedly reduced
incidence of hypocalcemia [3, 8]: significantly lower
increases in bone mineral density [3, 8]: larger increases
serum PTH levels [3, 8]: lower
serum levels of 25-hydroxyvitamin D3 [3, 8]: higher and more consistent
time to first post-treatment SRE [3, 8]: significantly delayed
incidence of hypocalcemia and severity of SHPT and hypercalcemia [3]: markedly reduced
incidence of hypocalcemia [4, 8]: significantly lower
increases in bone mineral density [4, 8]: larger increases
serum PTH levels [4, 8]: lower
time to additional bone metastasis [4, 8]: significantly delayed
incidence of hypocalcemia and severity of secondary hyperparathyroidism [4]: markedly reduced
plasma PTH [5]: decreases
increase in serum calcium [6, 9]: greater increase
plasma PTH [6, 9]: decrease
risk of hypocalcemia [6, 9]: reduced risk
time to additional bone metastasis [6, 10]: increased delay
increase in serum calcium [7, 11]: greater increase
plasma PTH [7, 11]: decrease
risk of hypocalcemia [7, 11]: reduced risk
time to additional bone metastasis or SRE [7, 10]: increased delay

C=C1CC[C@H](O)C/C1=C/C=C1\CCC[C@]2(C)[C@@H]([C@H](C)CCCC(C)C)CC[C@@H]12 [Vitamin D3, cholecalciferol]
incidence of hypocalcemia and severity of secondary hyperparathyroidism [2]: occur more frequently
incidence of hypocalcemia and severity of SHPT and hypercalcemia [3]: more frequently
incidence of hypocalcemia and severity of secondary hyperparathyroidism [4]: occur more frequently
